Entries after “also recorded” stand apart in the source; their conditions may differ.
Legend:
[1] = tested on: NFκB; experiment: NFκB DNA-binding by EMSA, nuclear extracts of menadione treated MCF-7 cells; assay type: cell-based, human; details: MCF-7, menadione 100 μM × 30 min
Procedure: (§1) PS-341 was kindly provided by Millennium Pharmaceuticals Inc. (Cambridge, Mass.). […] For assessment of combined treatment effects on cell viability, 2×10^4 cells (MCF-7, MCF-7/HER2, BT474) grown in 24-well plates were first treated with tamoxifen (dissolved in ethanol) and/or parthenolide (dissolved in DMSO); for the combination treatment pathenolide was added 4 h before addition of tamoxifen. Cell viability was measured 18 h after tamoxifen treatment using the sulforhodamine B (SRB) assay (Skehan, et al. 1990). Briefly, cells fixed with trichloroacetic acid were stained for 30 min with 0.4% SRB dissolved in 1% acetic acid. Unbound dye was removed by four washes with 1% acetic acid, and protein-bound dye was extracted with 10 mM unbuffered Tris base [tris(hydroxymethyl)aminomethane] for determination of optical density at 564 nm.
Fractionation of control and treated cells into cytoplasmic and nuclear extracts was performed as previously described (Dignam et al., 1983), with minor modification. Cells harvested on ice were washed twice with cold PBS, scraped and resuspended in 1.0 ml hypotonic buffer (20 mM HEPES, pH 7.0; 10 mM KCl; 1 mM MgCl2; 0.1% Triton X-100; 20% glycerol; 0.5 mM DTT) containing a cocktail of protease inhibitors (Mini CompleteTM protease inhibitors, Roche Diagnostics, Mannheim, Germany). The harvested cells were Dounce homogenized on ice, the mixture centrifuged at 3,000 rpm at 4° C. (5 min), and the cytoplasmic fraction separated from the nuclear pellet which was resuspended in elution buffer (20 mM HEPES, pH 7.0; 10 mM KCl; 1 mM MgCl2; 0.42 M NaCl; 0.1% Triton X-100; 20% glycerol; 0.5 mM DTT), supplemented with protease inhibitors. After 20 min at 4° C. the buffered mixture was centrifuged at 14,000 rpm at 4° C. (10 min) to obtain solubilized nuclear extracts which were then stored in aliquots at −80° C. after protein determination (Bradford; BioRad, Hercules, Calif.) and for subsequent NFkB DNA-binding assays.
NFκB DNA-binding activity was measured by two different techniques. Analogous to previous tumor extract scoring of Sp1 DNA-binding protein (Quong et al., 2002), total specific NFκB DNA-binding protein was determined by electrophoretic morbility shift assay (EMSA) as follows. A duplexed oligonucleotide probe (Promega, Madison, Wis.) with sense strand containing the decameric κB consensus binding sequence (underlined) 5′-[…]-3′(SEQ ID NO:4) was end-labeled with [γ-P32]ATP (PerkinElmer, Boston, Mass.) using T4 polynucleotide kinase (Promega, Madison, Wis.) and purified with G-50 Sephadex Bio-Spin columns (BioRad, Hercules, Calif.). […]

[2] = tested on: IκBα; experiment: Immunoblot of cytoplasmic IκBα in MCF-7 cells; assay type: cell-based, human; details: MCF-7, menadione 100 μM × 30 min
Procedure: as §1
Fractionation of control and treated cells into cytoplasmic and nuclear extracts was performed as previously described (Dignam et al., 1983), with minor modification. Cells harvested on ice were washed twice with cold PBS, scraped and resuspended in 1.0 ml hypotonic buffer (20 mM HEPES, pH 7.0; 10 mM KCl; 1 mM MgCl2; 0.1% Triton X-100; 20% glycerol; 0.5 mM DTT) containing a cocktail of protease inhibitors (Mini CompleteTM protease inhibitors, Roche Diagnostics, Mannheim, Germany). […]

CC1=CC(=O)c2ccccc2C1=O [menadione, 2-methyl-1,4-naphthoquinone]
NFκB activation after menadione treatment (EMSA) [1]: increase in MCF-7 NFκB activation; also recorded: significantly increase MCF-7 NFκB activity | cytoplasmic levels of IκBα after menadione treatment [2]: reduced
